Tested on: HCI-019 (organoid from a triple-negative breast cancer xenograft)
Experiment: CTG-3D luminescence at 96 h relative to day-0 seeding control (ratio to day 0); higher = more growth / less cytotoxicity; PDxO 3D drug screen, 96 h, CTG-3D normalised to day-0 seeding control.
Details: 0.005 µM; days in culture: 110

Structure (SMILES)	CTG-3D luminescence at 96 h
C[C@H](NC(=O)CCC(F)(F)F)C(=O)N[C@@H]1C(=O)N(CCO)c2ncccc2-c2ccccc21 [crenigacestat]	1.75
Cc1cc(Nc2ncc(Cl)c(Nc3ccccc3S(=O)(=O)C(C)C)n2)c(OC(C)C)cc1C1CCNCC1 [ceritinib]	1.21
CS(=O)(=O)c1ccc(C(=O)Nc2ccc(Cl)c(-c3ccccn3)c2)c(Cl)c1 [vismodegib]	1.23
NC(=O)c1cccc2cn(-c3ccc([C@@H]4CCCNC4)cc3)nc12 [niraparib]	1.18
Cc1cc(Nc2ncnc3ccc(NC4=NC(C)(C)CO4)cc23)ccc1Oc1ccn2ncnc2c1 [tucatinib]	1.28
CCN(c1cc(C#CCN2CCOCC2)cc(C(=O)NCc2c(C)cc(C)[nH]c2=O)c1C)[C@H]1CC[C@H](N(C)CCOC)CC1	1.58

Same assay, conditions: 0.005 µM; days in culture: 131

Structure (SMILES)	CTG-3D luminescence at 96 h
NC1(C(=O)N[C@@H](CCO)c2ccc(Cl)cc2)CCN(c2nc[nH]c3nccc2-3)CC1 [capivasertib]	2.98
CC(C)n1nc(-c2ccc3oc(N)nc3c2)c2c(N)ncnc21 [sapanisertib]	3.17
O=C(c1ccc(F)c(F)c1Nc1ccc(I)cc1F)N1CC(O)([C@@H]2CCCCN2)C1 [cobimetinib]	3.36
C[C@H](NC(=O)CCC(F)(F)F)C(=O)N[C@@H]1C(=O)N(CCO)c2ncccc2-c2ccccc21 [crenigacestat]	1.97
Cc1cc(Nc2ncc(Cl)c(Nc3ccccc3S(=O)(=O)C(C)C)n2)c(OC(C)C)cc1C1CCNCC1 [ceritinib]	2.64
CS(=O)(=O)c1ccc(C(=O)Nc2ccc(Cl)c(-c3ccccn3)c2)c(Cl)c1 [vismodegib]	3.59
NC(=O)c1cccc2cn(-c3ccc([C@@H]4CCCNC4)cc3)nc12 [niraparib]	2.98
Cc1cc(Nc2ncnc3ccc(NC4=NC(C)(C)CO4)cc23)ccc1Oc1ccn2ncnc2c1 [tucatinib]	3.6
CCN(c1cc(C#CCN2CCOCC2)cc(C(=O)NCc2c(C)cc(C)[nH]c2=O)c1C)[C@H]1CC[C@H](N(C)CCOC)CC1	3.07

Same assay, conditions: 0.005 µM; days in culture: 152

Structure (SMILES)	CTG-3D luminescence at 96 h
NC1(C(=O)N[C@@H](CCO)c2ccc(Cl)cc2)CCN(c2nc[nH]c3nccc2-3)CC1 [capivasertib]	2.96
CC(C)n1nc(-c2ccc3oc(N)nc3c2)c2c(N)ncnc21 [sapanisertib]	2.71
O=C(c1ccc(F)c(F)c1Nc1ccc(I)cc1F)N1CC(O)([C@@H]2CCCCN2)C1 [cobimetinib]	2.66
C[C@H](NC(=O)CCC(F)(F)F)C(=O)N[C@@H]1C(=O)N(CCO)c2ncccc2-c2ccccc21 [crenigacestat]	2.6
Cc1cc(Nc2ncc(Cl)c(Nc3ccccc3S(=O)(=O)C(C)C)n2)c(OC(C)C)cc1C1CCNCC1 [ceritinib]	1.79
CS(=O)(=O)c1ccc(C(=O)Nc2ccc(Cl)c(-c3ccccn3)c2)c(Cl)c1 [vismodegib]	2.59
NC(=O)c1cccc2cn(-c3ccc([C@@H]4CCCNC4)cc3)nc12 [niraparib]	1.69
Cc1cc(Nc2ncnc3ccc(NC4=NC(C)(C)CO4)cc23)ccc1Oc1ccn2ncnc2c1 [tucatinib]	3.04
CCN(c1cc(C#CCN2CCOCC2)cc(C(=O)NCc2c(C)cc(C)[nH]c2=O)c1C)[C@H]1CC[C@H](N(C)CCOC)CC1	2.16

Same assay, conditions: 0.1 µM; days in culture: 110

Structure (SMILES)	CTG-3D luminescence at 96 h
NC1(C(=O)N[C@@H](CCO)c2ccc(Cl)cc2)CCN(c2nc[nH]c3nccc2-3)CC1 [capivasertib]	1.97
CC(C)n1nc(-c2ccc3oc(N)nc3c2)c2c(N)ncnc21 [sapanisertib]	0.781
O=C(c1ccc(F)c(F)c1Nc1ccc(I)cc1F)N1CC(O)([C@@H]2CCCCN2)C1 [cobimetinib]	1.74
C[C@H](NC(=O)CCC(F)(F)F)C(=O)N[C@@H]1C(=O)N(CCO)c2ncccc2-c2ccccc21 [crenigacestat]	2.18
Cc1cc(Nc2ncc(Cl)c(Nc3ccccc3S(=O)(=O)C(C)C)n2)c(OC(C)C)cc1C1CCNCC1 [ceritinib]	2.24
CS(=O)(=O)c1ccc(C(=O)Nc2ccc(Cl)c(-c3ccccn3)c2)c(Cl)c1 [vismodegib]	2.46
NC(=O)c1cccc2cn(-c3ccc([C@@H]4CCCNC4)cc3)nc12 [niraparib]	1.2
Cc1cc(Nc2ncnc3ccc(NC4=NC(C)(C)CO4)cc23)ccc1Oc1ccn2ncnc2c1 [tucatinib]	1.81
CCN(c1cc(C#CCN2CCOCC2)cc(C(=O)NCc2c(C)cc(C)[nH]c2=O)c1C)[C@H]1CC[C@H](N(C)CCOC)CC1	2.08

Same assay, conditions: 0.1 µM; days in culture: 131

Structure (SMILES)	CTG-3D luminescence at 96 h
NC1(C(=O)N[C@@H](CCO)c2ccc(Cl)cc2)CCN(c2nc[nH]c3nccc2-3)CC1 [capivasertib]	3.31
CC(C)n1nc(-c2ccc3oc(N)nc3c2)c2c(N)ncnc21 [sapanisertib]	1.21
O=C(c1ccc(F)c(F)c1Nc1ccc(I)cc1F)N1CC(O)([C@@H]2CCCCN2)C1 [cobimetinib]	3.24
C[C@H](NC(=O)CCC(F)(F)F)C(=O)N[C@@H]1C(=O)N(CCO)c2ncccc2-c2ccccc21 [crenigacestat]	2.86
Cc1cc(Nc2ncc(Cl)c(Nc3ccccc3S(=O)(=O)C(C)C)n2)c(OC(C)C)cc1C1CCNCC1 [ceritinib]	3.8
CS(=O)(=O)c1ccc(C(=O)Nc2ccc(Cl)c(-c3ccccn3)c2)c(Cl)c1 [vismodegib]	3.93
NC(=O)c1cccc2cn(-c3ccc([C@@H]4CCCNC4)cc3)nc12 [niraparib]	2.4
Cc1cc(Nc2ncnc3ccc(NC4=NC(C)(C)CO4)cc23)ccc1Oc1ccn2ncnc2c1 [tucatinib]	3.65
CCN(c1cc(C#CCN2CCOCC2)cc(C(=O)NCc2c(C)cc(C)[nH]c2=O)c1C)[C@H]1CC[C@H](N(C)CCOC)CC1	3.21

Same assay, conditions: 0.1 µM; days in culture: 152

Structure (SMILES)	CTG-3D luminescence at 96 h
NC1(C(=O)N[C@@H](CCO)c2ccc(Cl)cc2)CCN(c2nc[nH]c3nccc2-3)CC1 [capivasertib]	1.68
CC(C)n1nc(-c2ccc3oc(N)nc3c2)c2c(N)ncnc21 [sapanisertib]	0.969
O=C(c1ccc(F)c(F)c1Nc1ccc(I)cc1F)N1CC(O)([C@@H]2CCCCN2)C1 [cobimetinib]	1.88
C[C@H](NC(=O)CCC(F)(F)F)C(=O)N[C@@H]1C(=O)N(CCO)c2ncccc2-c2ccccc21 [crenigacestat]	2.64
Cc1cc(Nc2ncc(Cl)c(Nc3ccccc3S(=O)(=O)C(C)C)n2)c(OC(C)C)cc1C1CCNCC1 [ceritinib]	1.51
CS(=O)(=O)c1ccc(C(=O)Nc2ccc(Cl)c(-c3ccccn3)c2)c(Cl)c1 [vismodegib]	1.83
NC(=O)c1cccc2cn(-c3ccc([C@@H]4CCCNC4)cc3)nc12 [niraparib]	1.52
Cc1cc(Nc2ncnc3ccc(NC4=NC(C)(C)CO4)cc23)ccc1Oc1ccn2ncnc2c1 [tucatinib]	1.67
CCN(c1cc(C#CCN2CCOCC2)cc(C(=O)NCc2c(C)cc(C)[nH]c2=O)c1C)[C@H]1CC[C@H](N(C)CCOC)CC1	1.89

Same assay, conditions: 1 µM; days in culture: 110

Structure (SMILES)	CTG-3D luminescence at 96 h
NC1(C(=O)N[C@@H](CCO)c2ccc(Cl)cc2)CCN(c2nc[nH]c3nccc2-3)CC1 [capivasertib]	0.842
CC(C)n1nc(-c2ccc3oc(N)nc3c2)c2c(N)ncnc21 [sapanisertib]	0.409
O=C(c1ccc(F)c(F)c1Nc1ccc(I)cc1F)N1CC(O)([C@@H]2CCCCN2)C1 [cobimetinib]	0.92
C[C@H](NC(=O)CCC(F)(F)F)C(=O)N[C@@H]1C(=O)N(CCO)c2ncccc2-c2ccccc21 [crenigacestat]	1.25
Cc1cc(Nc2ncc(Cl)c(Nc3ccccc3S(=O)(=O)C(C)C)n2)c(OC(C)C)cc1C1CCNCC1 [ceritinib]	1.78
CS(=O)(=O)c1ccc(C(=O)Nc2ccc(Cl)c(-c3ccccn3)c2)c(Cl)c1 [vismodegib]	1.99
NC(=O)c1cccc2cn(-c3ccc([C@@H]4CCCNC4)cc3)nc12 [niraparib]	0.642
Cc1cc(Nc2ncnc3ccc(NC4=NC(C)(C)CO4)cc23)ccc1Oc1ccn2ncnc2c1 [tucatinib]	1.13
CCN(c1cc(C#CCN2CCOCC2)cc(C(=O)NCc2c(C)cc(C)[nH]c2=O)c1C)[C@H]1CC[C@H](N(C)CCOC)CC1	1.81

Same assay, conditions: 1 µM; days in culture: 131

Structure (SMILES)	CTG-3D luminescence at 96 h
NC1(C(=O)N[C@@H](CCO)c2ccc(Cl)cc2)CCN(c2nc[nH]c3nccc2-3)CC1 [capivasertib]	1.45
CC(C)n1nc(-c2ccc3oc(N)nc3c2)c2c(N)ncnc21 [sapanisertib]	0.676
O=C(c1ccc(F)c(F)c1Nc1ccc(I)cc1F)N1CC(O)([C@@H]2CCCCN2)C1 [cobimetinib]	1.65
C[C@H](NC(=O)CCC(F)(F)F)C(=O)N[C@@H]1C(=O)N(CCO)c2ncccc2-c2ccccc21 [crenigacestat]	2.87
Cc1cc(Nc2ncc(Cl)c(Nc3ccccc3S(=O)(=O)C(C)C)n2)c(OC(C)C)cc1C1CCNCC1 [ceritinib]	2.36
CS(=O)(=O)c1ccc(C(=O)Nc2ccc(Cl)c(-c3ccccn3)c2)c(Cl)c1 [vismodegib]	2.82
NC(=O)c1cccc2cn(-c3ccc([C@@H]4CCCNC4)cc3)nc12 [niraparib]	0.89
Cc1cc(Nc2ncnc3ccc(NC4=NC(C)(C)CO4)cc23)ccc1Oc1ccn2ncnc2c1 [tucatinib]	2.9
CCN(c1cc(C#CCN2CCOCC2)cc(C(=O)NCc2c(C)cc(C)[nH]c2=O)c1C)[C@H]1CC[C@H](N(C)CCOC)CC1	1.98
